Test system: SARS-CoV-2
Experiment: In vitro SARS-CoV-2 plaque inhibition assay in Vero E6 cells
Type: cell-based

SMILES | antiviral effects (plaque inhibition) (10 µM, 48 h) | reduction of the production of SARS-CoV-2 plaques (10 µM, 48 h) | IC50 (Severe acute respiratory syndrome coronavirus 2, Vero C1008, estimated, read-out: IC50 plaque formation)
COC(=O)N[C@H](C(=O)N[C@@H](Cc1ccccc1)[C@@H](O)CN(Cc1ccc(-c2ccccn2)cc1)NC(=O)[C@@H](NC(=O)OC)C(C)(C)C)C(C)(C)C [Atazanavir] | no antiviral effects |  | 
CC[C@H](NC(=O)[C@H](C)NC)C(=O)N1C[C@@H](O)C[C@H]1Cc1c(-c2[nH]c3cc(F)ccc3c2C[C@@H]2C[C@H](O)CN2C(=O)[C@H](CC)NC(=O)[C@H](C)NC)[nH]c2cc(F)ccc12 [Birinapant] |  | 37% | 18 ± 3.6 µM

Source: patent US20230172907A1, “SARS-COV-2 INHIBITORS” (priority 2021, published 2023)
